Measurements: US20080103048A1, “Methods for the production of granular composite pesticidal compositions and the compositions produced thereby” (priority 2006, published 2008)

Experiment: Solubility of non-cyano containing pyrethroids in non-polar solvents
Assay type: physicochemical
Description: Specifically, samples were prepared in 4 ounce glass bottles by combining the non-cyano containing pyrethroids Bifenthrin Technical (supplied by FMC Corporation) and Permethrin Technical sold by Gharda USA, Inc with various non-polar solvents at 10%, 25% and 50% rates by mass (total mass of each sample being 40 grams) so that the 10% formulation contained 4 g of the pyrethroid and 36 g solvent; the 25% formulation contained 10 g of the pyrethroid and 30 g solvent; and the 50% formulation contained 20 g of the pyrethroid and 20 g solvent. Each of the resulting solutions was stirred vigorously in the bottles until a clear solution was obtained. The initial temperatures of the solutions in each of bottles was recorded before the bottles were heated on a laboratory hot plate Each of the solutions was stirred constantly while the solution was being heated on the hot plate and the solutions were frequently observed for signs of any visible separation between the solvent and the solute. […] The final temperature of the solutions in each of the bottles was recorded and it was noted that the temperature required to achieve full miscibility of the pyrethroids in the solvents was up to about 80° C.
In the following Table III, each of the non-cyano containing pyrethroids that were tested and each of the non-polar solvents which were employed with such pyrethroids are listed as well as the initial temperature of the solution and the final temperature resulting in full miscibility of the components.

[1] = Canola Oil (Stepsol ROW-W), 10% pyrethroid by mass
[2] = Canola Oil (Stepsol ROW-W), 25% pyrethroid by mass
[3] = Canola Oil (Stepsol ROW-W), 50% pyrethroid by mass
[4] = Polybutene H-7, 10% pyrethroid by mass
[5] = Polybutene H-7, 25% pyrethroid by mass
[6] = Polybutene H-7, 50% pyrethroid by mass
[7] = Polybutene H-8, 10% pyrethroid by mass
[8] = Polybutene H-8, 25% pyrethroid by mass
[9] = Polybutene H-8, 50% pyrethroid by mass
[10] = Polybutene L-14, 10% pyrethroid by mass
[11] = Polybutene L-14, 25% pyrethroid by mass
[12] = Polybutene L-14, 50% pyrethroid by mass
[13] = Polybutene L-50, 10% pyrethroid by mass
[14] = Polybutene L-50, 25% pyrethroid by mass
[15] = Polybutene L-50, 50% pyrethroid by mass
[16] = Safflower Oil, 10% pyrethroid by mass
[17] = Safflower Oil, 25% pyrethroid by mass
[18] = Safflower Oil, 50% pyrethroid by mass

SMILES | Final Temp. (resulting in full miscibility) [1] | Final Temp. (resulting in full miscibility) [2] | Final Temp. (resulting in full miscibility) [3] | Final Temp. (resulting in full miscibility) [4] | Final Temp. (resulting in full miscibility) [5] | Final Temp. (resulting in full miscibility) [6] | Final Temp. (resulting in full miscibility) [7] | Final Temp. (resulting in full miscibility) [8] | Final Temp. (resulting in full miscibility) [9] | Final Temp. (resulting in full miscibility) [10] | Final Temp. (resulting in full miscibility) [11] | Final Temp. (resulting in full miscibility) [12] | Final Temp. (resulting in full miscibility) [13] | Final Temp. (resulting in full miscibility) [14] | Final Temp. (resulting in full miscibility) [15] | Final Temp. (resulting in full miscibility) [16] | Final Temp. (resulting in full miscibility) [17] | Final Temp. (resulting in full miscibility) [18] | solubility and stability in polybutene L-14 (over a range of concentrations)
Cc1c(COC(=O)[C@H]2[C@@H](/C=C(/Cl)C(F)(F)F)C2(C)C)cccc1-c1ccccc1 [Bifenthrin Tech., bifenthrin] | 45 °C | 57 °C | 74 °C | 45 °C | 41 °C | 41 °C | 37 °C | 50 °C | 36 °C | 30 °C | 40 °C | 43 °C | 37 °C | 35 °C | 43 °C | 80 °C | 80 °C | 80 °C | soluble and stable
CC1(C)C(C=C(Cl)Cl)C1C(=O)OCc1cccc(Oc2ccccc2)c1 (stereo not shown) [Permethrin Tech., permethrin] | 26 °C | 27 °C | 30 °C | 29 °C | 33 °C | 50 °C | 51 °C | 54 °C | 62 °C | 26 °C | 28 °C | 31 °C | 35 °C | 51 °C | 54 °C | 80 °C | 80 °C | 80 °C | 
